{"source": "patent US20140350119A1", "about": "“OPHTHALMIC COMPOSITION COMPRISING GERANYLGERANYLACETONE” (ROHTO PHARMACEUTICAL CO., LTD., priority 2012, published 2014)", "key": {"ARPE-19": {"tested_on": "ARPE-19", "test": "Protective effect for retinal pigment epithelial cells against oxidative stress by hydrogen peroxide", "assay_type": "cell-based, human", "settings": "all-trans form content 280 μM, 14 hours, then 750 μM hydrogen peroxide 2 hours, FIG. 4, n=3", "source_text": "The involvement of oxidative stress in ophthalmologic diseases has been widely reported. Such involvement has been observed in, in addition to glaucoma and cataract, retinal diseases such as retinal diseases due to diabetes, hypertension, hyperlipemia, etc., age-related macular degeneration, retinopathy of prematurity, retinal vascular occlusion, retinal light damage, etc. (Nippon Ganka Gakkai Zasshi. 112, 22-29 (2008)). In the retina, the retinal pigment epithelium exists in an environment in which reactive oxygen easily generates (Invest Opthalmol Vis Sci. 2006 July 47(7): 3164-3177.). […]\nAfter 2 hours of incubation, the cell culture supernatant was removed, and 200 μL of PBS was added to each well and promptly removed. Then, 100 μL of an equivalent mixture of a cell viability detection reagent Cell Titer-Glo (Promega) and PBS was added to each well and the luminescence produced by the reaction with ATP in living cells was measured with a luminometer (GloMax; Promega). The cell viability was calculated from the measured luminescence by the following formula and the cytoprotective effect of GGA against oxidative stress by hydrogen peroxide was examined.\nCell viability (%)=100×[(luminescence of base- or GGA-treated group)/(luminescence of non-treated group)]"}, "[1]": {"tested_on": "IL-8 production by TNF-α in ARPE-19", "test": "Inhibitory effect on IL-8 production by TNF-α from retinal pigment epithelial cells", "assay_type": "cell-based, human", "settings": "all-trans form content 50 μM, 16 hours, TNF-α 4 hours, FIG. 5, n=3", "source_text": "Age-related macular degeneration is known to involve the accumulation of drusen under the retinal pigment epithelium. Drusen attract macrophages and macrophages secrete TNF-α. TNF-α acts on the retinal pigment epithelium and its peripheral tissue, and the cells subsequently produce a variety of cytokines and cause inflammation (Mol Vis. 2008 14: 2292-303). A typical cytokine that is involved in neutrophil migration and spreads inflammation is interleukin-8 (IL-8). In this experiment, the inhibitory effect of GGA on IL-8 production by TNF-α was examined using a human-derived retinal pigment epithelial cell line, ARPE-19. […]\nAfter 4 hours of incubation, 150 μL of the cell culture supernatant was collected and stored at −80° C. […] Then, 100 μL of an equivalent mixture of a cell viability detection reagent Cell Titer-Glo and PBS was added to each well and the luminescence produced by the reaction with ATP in living cells was measured with a luminometer. From the measured luminescence, the cell viability was calculated by the following formula.\nCell viability (%)=100×[(luminescence of GGA-treated group)/(luminescence of base-treated group)]\nThe stored cell culture supernatant was allowed to warm to room temperature, and the IL-8 concentration was quantified with Human CXCL8/IL-8 Quantikine ELISA Kit (R&D Systems). […]"}}, "data": [{"molecule": "CC(=O)CC/C=C(\\C)CC/C=C(\\C)CC/C=C(\\C)CCC=C(C)C", "note": "[all-trans form, (5E,9E,13E)-6,10,14,18-tetramethyl-5,9,13,17-nonadecatetrae n-2-one]", "values": [{"measurement": "Cell viability compared with base-treated group", "setting": "ARPE-19", "value": "significantly higher cell viabilities"}, {"measurement": "Inhibitory effect on IL-8 production compared with GGA 6:4", "setting": "[1]", "value": "significant inhibitory effect on IL-8 production"}]}]}
